Measurements from patent US9499493B2, “2,4-pyrimidinediamine compounds and their uses” (Rigel Pharmaceuticals, Inc., priority 2002, dated 2016).

Experiments:
[1] = system: cultured human mast cells (CHMC); assay: CHMC low cell density IgE activation: tryptase assay; format: cell-based; conditions: anti-IgE
Procedure, shortened: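 Degranulation was triggered with anti-IgE for 30 minutes at 37° C in cultured human mast cells seeded at low density (1000-1500 cells/well, chosen by donor) after a 1 hr equilibration in MT buffer. Released tryptase in cleared supernatant was quantified with a tryptase substrate at room temperature for 30 minutes.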

[2] = system: cultured human mast cells (CHMC); assay: CHMC low cell density ionomycin activation: tryptase assay; format: cell-based

IC50 [1] [µM]	IC50 [2] [µM]	SMILES
1.5	7.5	COC(=O)C(C)Oc1ccc(Nc2ccnc(Nc3ccc(OC(C)C(=O)OC)cc3)n2)cc1 (racemic) [R926257, (±)-N2,N4-Bis[4-methoxycarbonyhalpha-methypmethyleneoxyphenyl]-2,4-pyrimidinediamine]
2.5	6.2	CCOC(=O)C(C)Oc1ccc(Nc2ncc(C)c(Nc3ccc(OC(C)C(=O)OCC)cc3)n2)cc1 (racemic) [R926259, (±)-N2,N4-Bis[4-ethoxycarbonyl(alpha-methyl)methyleneoxyphenyl]-5-methyl-2,4-pyrimidinediamine]
0.208	> 10	COC(=O)C1Cc2cc(Nc3ncc(F)c(Nc4cccc(C(F)(F)F)c4)n3)ccc2O1 (racemic) [R927028, (±)-N2-(2,3-Dihydro-2-methoxycarbonylbenzofuran-5-yl)-5-fluoro-N4-(3-trifluorophenyl)-2,4-pyrimidinediamine]
1.23	> 10	CNC(=O)C1Cc2cc(Nc3ncc(F)c(Nc4ccc(OCCO)nc4)n3)ccc2O1 (racemic) [R927039, (±)-N2-[2,3-Dihydro-(N-methylamino)carbonylbenzofuran-5-yl]-5-fluoro-N4-[2-(2-hydroxyethyleneoxy)pyridin-5-yl]-2,4-pyrimidinediamine]
0.788	> 10	CNC(=O)C1Cc2cc(Nc3ncc(F)c(Nc4ccc5c(c4)OC(F)(F)O5)n3)ccc2O1 (racemic) [R927041, (±)-N2-[2,3-Dihydro-(N-methylamino)carbonylbenzofuran-5-yl]-N4-(3,4-difluoromethyleneoxyphenyl)-5-fluoro-2,4-pyrimidinediamine]
> 10	> 10	Nc1cccc(Nc2nc(Nc3cccc(NC(=O)CCC(C(=O)O)N4C(=O)c5ccccc5C4=O)c3)ncc2F)c1 (racemic) [R950251, (±)-N4-(3-Aminophenyl)-5-fluoro-N2-(3-(3-carboxy-3-D,L-N-phtaloylamino)propylenecarbonylaminophenyl)-2,4-pyrimidinediamine]
10	> 10	Nc1cccc(Nc2nc(Nc3cccc(NC(=O)CCC(N)C(=O)O)c3)ncc2F)c1 (racemic) [R950255, (±)-N4-(3-Aminophenyl)-5-fluoro-N2-[3-(3-carboxy-3-amino)propylenecarbonylaminophenyl]-2,4-pyrimidinediamine]
> 10	> 10	Fc1cnc(Cl)nc1Nc1cccc(-c2nnn[nH]2)c1 [Compound R926853]
> 10	> 10	COC(=O)c1cc(Nc2nc(Cl)ncc2F)cc(C(F)(F)F)c1 [Compound R926861]
> 10	> 10	Fc1cnc(Cl)nc1Nc1ccc2c(c1)CN(c1nc(Cl)ncc1F)CC2 [Compound R926910]
> 10	> 10	CC(C)(C)OC(=O)N1CCc2ccc(Nc3nc(Cl)ncc3F)cc2C1 [Compound R926911]
> 10	> 10	Cc1ccc(Nc2nc(Cl)ncc2F)cc1C(F)(F)F [Compound R926920]
> 10	> 10	CC1(C)Oc2ccc(Nc3nc(Cl)ncc3F)cc2NC1=O [Compound R940322]
> 10	> 10	O=C1COc2ccc(Nc3nc(Cl)ncc3F)nc2N1 [Compound R945298]
1.67	> 10	O=C1COc2cc(Nc3nc(Nc4cccc(O)c4)ncc3F)ccc2N1 [R908698]
1.27	> 10	CNC(=O)COc1cccc(Nc2ncc(F)c(Nc3ccc4c(c3)OCC(=O)N4)n2)c1 [R908700, N4-(1,4-Benzoxazine-3-on-7-yl)-5-fluoro-N2-((N-methylacetamido-2)-3-phenoxy)-2,4-pyrimidinediamine]
0.099	7.64	CNC(=O)COc1cccc(Nc2ncc(F)c(Nc3ccc4c(c3)NC(=O)CO4)n2)c1 [R908701]
0.801	> 10	CNC(=O)COc1cccc(Nc2ncc(F)c(Nc3ccc4c(c3)OCCN4C)n2)c1 [R908705, 5-Fluoro-N2-[(N-methylacetamido-2)-3-phenoxy]-N4-(N-methyl-1,4-benzoxazin-7-yl)-2,4-pyrimidinediamine]
0.996	> 10	CN(C)CCOc1ccc(Nc2ncc(F)c(Nc3cccc(O)c3)n2)cc1 [R909236, N2-[4-(2-N,N-Dimethylamino)ethoxyphenyl]-5-fluoro-N4-(3-hydroxyphenyl)-2,4-pyrimidinediamine]
> 10	> 10	Fc1cnc(Nc2ccc3c(c2)CCO3)nc1Nc1ccc2c(c1)CCO2 [R909237, N2,N4-Bis(dihydrobenzofuran-5-yl)-5-fluoro-2,4-pyrimidinediaminediamine]

IC50 [1] [µM]	IC50 [2] [µM]	SMILES
0.264	> 10	O=C(COc1ccc(Nc2ncc(F)c(Nc3ccc4c(c3)OCCO4)n2)cc1)NCCO [R909239, N4-(3,4-Ethylendioxyphenyl)-5-fluoro-N2-[4-(N-2-hydroxyethylamino)carbonylmethyleneoxyphenyl]-2,4-pyrimidinediamine]
0.262	> 10	CNC(=O)COc1ccc(Nc2ncc(F)c(Nc3ccc4c(c3)OCCO4)n2)cc1 [R909240, N4-(3,4-Ethylendioxyphenyl)-5-fluoro-[4-(N-methylamino)carbonylmethyleneoxyphenyl]-2,4-pyrimidinediamine]
0.567	> 10	CCOC(=O)COc1cccc(Nc2ncc(F)c(Nc3ccc4c(c3)NCCO4)n2)c1 [R909242, N4-(1,4-Benzoxazin-6-yl)-N2-[3-ethoxyocarbonylmethyleneoxyphenyl]-5-fluoro-2,4-pyrimidinediamine]
2.39	> 10	CNC(=O)COc1cccc(Nc2nc(Nc3ccc4c(c3)NCCO4)ncc2F)c1 [R909247, N2-(1,4-Benzoxazin-6-yl)-5-fluoro-N4-[3-(N-methylamino)carbonylmethyleneoxyphenyl]-2,4-pyrimidinediamine]
> 10	> 10	CNC(=O)COc1cccc(Nc2nc(Nc3cccc4c3CCO4)ncc2F)c1 [R909249, N2-(4-Dihydrobenzofuranyl)-5-fluoro-N4-[3-(N-methylamino)carbonylmethyleneoxyphenyl]-2,4-pyrimidinediamine]
0.138	> 10	CC(O)CNC(=O)COc1cccc(Nc2ncc(F)c(Nc3ccc4c(c3)NCCO4)n2)c1 (centres unmarked) [R909251, N4-(1,4-Benzoxazin-6-yl)-5-fluoro-N2-[3-(N-2-hydroxypropylamino)carbonylmethyleneoxyphenyl]-2,4-pyrimidinediamine]
0.248	> 10	O=C(COc1cccc(Nc2ncc(F)c(Nc3ccc4c(c3)NCCO4)n2)c1)NCCCO [R909252, N4-(1,4-Benzoxazin-6-yl)-5-fluoro-N2-[3-(N-3-hydroxypropylamino)carbonylmethyleneoxyphenyl]-2,4-pyrimidinediamine]
7.96	> 10	CNC(=O)COc1cccc(Nc2nc(Nc3ccc(OCCN(C)C)cc3)ncc2F)c1 [R909253, N2-[4-(2-N,N-Dimethylaminoethyl)oxyphenyl]-5-fluoro-N4-[3-(N-methylamino)carbonylmethyleneoxyphenyl]-2,4-pyrimidinediamine]
0.136	> 10	CC(C)NC(=O)COc1cccc(Nc2ncc(F)c(Nc3ccc4c(c3)NCCO4)n2)c1 [R909254, N4-(1,4-Benzoxazin-6-yl)-N2-[3-(N-isopropylamino)carbonylmethyleneoxyphenyl]-5-fluoro-2,4-pyrimidinediamine]
1.04	> 10	CNC(=O)COc1cccc(Nc2ncc(F)c(Nc3ccc4c(c3)N(C)C(=O)CO4)n2)c1 [R909260, 5-Fluoro-N2-[3-(N-methylaminocarbonylmethyleneoxy)phenyl]-N4-[6-(N-methyl-1,4-benzoxazin-3-onyl)]pyrimidinediamine]
0.93	> 10	CNC(=O)COc1cccc(Nc2ncc(F)c(Nc3ccc4c(c3)OCC(=O)N4C)n2)c1 [R909261]
0.071	> 10	O=C1COc2ccc(Nc3ncc(F)c(Nc4cccc(O)c4)n3)cc2N1 [R909268, N2-(1,4-Benzoxazin-3-on-6-yl)-5-fluoro-N4-(3-hydroxyphenyl)-2,4-pyrimidinediamine]
0.671	> 10	CCOC(=O)COc1cccc(Nc2ncc(F)c(Nc3ccc4c(c3)NC(C)(C)CO4)n2)c1 [R909308]
0.083	> 10	CNC(=O)COc1cccc(Nc2ncc(F)c(Nc3ccc4c(c3)NC(C)(C)CO4)n2)c1 [R909309, N4-(3,3-Dimethyl-1,4-benzoxazin-6-yl)-5-fluoro-N2-[3-(N-methylaminocarbonylmethyleneoxy)phenyl]-2,4-pyrimidinediamine]
0.42	> 10	FC(F)(F)c1cnc(Nc2ccc3c(c2)OCCO3)nc1Nc1ccc2c(c1)OCCO2 [R920669]
2.18	> 10	CCOc1ccc(Nc2nc(Nc3ccc4c(c3)OCCO4)ncc2F)cc1 [R920670, N4-(4-ethyloxyphenyl)-N2-(3,4-ethylenedioxyphenyl)-5-fluoro-2,4-pyrimidinediamine]
> 10	> 10	Oc1cccc(Nc2nc(Nc3ccc(OCc4nnn[nH]4)cc3)ncc2F)c1 [R920818, 5-Fluoro-N4-(3-hydroxyphenyl)-N2-[4-(1,2,3,4-tetrazol-5-yl)methyleneoxyphenyl]-2,4-pyrimidinediamine]
10	> 10	Oc1cccc(Nc2ccnc(Nc3ccc(OCc4nn[nH]n4)cc3)n2)c1 [R920819, N4-(3-Hydroxyphenyl)-N2-[4-(1H,1,2,3,4-tetrazol-5-yl)methyleneoxyphenyl]-2,4-pyrimidinediamine]
> 10	> 10	Cc1cnc(Nc2ccc(OCc3nnn[nH]3)cc2)nc1Nc1cccc(O)c1 [R920820, N4-(3-Hydroxyphenyl)-5-methyl-N2-[4-(1H,1,2,3,4-tetrazol-5-yl)methyleneoxyphenyl]-2,4-pyrimidinediamine]

SMILES	IC50 [1] [µM]	IC50 [2] [µM]
Fc1cnc(Cl)nc1Nc1ccc2c(c1)CNCC2 [Compound R926912]	> 10	> 10
